Measurements from US20070099867A1, “Pharmaceutical agent containing hyaluronan as an active ingredient” (GLYCOSCIENCE LABORATORIES, INC., priority 2005, published 2007).

Experiments:
K562 [1] = experiment: DNA chip gene expression analysis of cell viability genes (Example 3); type: cell-based, human; conditions: K562, 42° C. 20 minutes then 37° C. 30 minutes, HA4 10 ng/ml
Protocol: In this example, the cell viability enhancement of a pharmaceutical agent according to the invention was assessed using a DNA chip capable of monitoring a gene expression promotion/inhibition.
First, the K562 was incubated in Groups 1 and 2 in the […] described above. The both groups were incubated at 42° C. for 20 minutes followed by 37° C. for 30 minutes. The medium of Group 2 was supplemented with HA4 (10 ng/ml).
After the incubation, the medium was removed by centrifugation at 1000 rpm. The obtained cells were stored in a deep freezer at −60° C. From the cells thus stored, RNA was extracted according to a standard method. The extracted RNA was subjected to the DNA chip to analyze gene expressions. The DNA chip gene expression analysis was subtracted to DNA CHIP Research Inc. Specifically, the trade name: AceGene Human Oligo Chip 30K 1 Chip Version manufactured by DNA CHIP Research Inc. was employed.

rat spinal injury model = experiment: Rat spinal injury model, immunostaining of spinal tissue with anti-Hsp72 and anti-synaptophysin antibody; type: in vivo, Wistar rat; conditions: Group 3: continuous intrathecal HA4 6 μg/day, 7 days; compared with Sham-operation (Group 1) and saline (Group 2)
Protocol: In this example, a rat spinal injury model was treated continuously with a physiological saline (saline group) or a physiological saline containing HA4 (HA4 group) followed by sampling the spinal tissue, which was then immunostained with an anti-Hsp72 antibody and/or an anti-synaptophysin antibody. Also in this example, a rat which had been subjected to a Sham-operation was handled as an intact control (Sham-operation group).
The rat spinal injury model was prepared by subjecting a Wistar rat (11-week old when receiving, 12-week old when using) to the procedure described below. First, a cervical to lumbar region of a test rat was clipped using an electric clipper under an anesthesia with pentobarbital and then the clipped region was cleaned with a 70% alcohol and ISOGIN. Then, the dorsal skin was excised to expose the 5th to 10th thoracic vertebrae and then the 6th thoracic vertebra was subjected to a semi-laminectomy. Then a dura was incised slightly and then under an anesthesia with xylocaine, the tip (fabricated to be 0.3 mm) of a microforceps was introduced over the width of the spinal posterior funiculus (about 1.5 mm) until the tip of the microforceps was brought into contact with the abdominal side vertebral body, and the microforceps were moved for 10 seconds to effect a debridement of the spinal cord (hereinafter referred to as a primary injury site). […]

[2] = tested on: experimental autoimmune encephalomyelitis (EAE) multiple sclerosis model animals; experiment: Experimental autoimmune encephalomyelitis (EAE) multiple sclerosis model, EAE neural symptom evaluation; type: in vivo, Lewis rats; conditions: for EAE clinical score at the EAE climax: Day 13 after antigen inoculation, saline 2.2±0.41; for diseased period: saline 6.5±0.55 days
K562 [3] = experiment: DNA chip expression analysis of cytokine-associated and chemokine-associated genes (Example 4); type: cell-based, human; conditions: K562, 42° C. 20 minutes then 37° C. 30 minutes, HA4 10 ng/ml
Protocol: In this example, the cytokine-associated gene and chemokine-associated gene expression inhibition of a pharmaceutical agent according to the invention was assessed using a DNA chip capable of monitoring a gene expression promotion/inhibition.
Experimental method: First, the K562 was incubated in Groups 1 and 2 in the RPMI medium described above. The both groups were incubated at 42° C. for 20 minutes followed by 37° C. for 30 minutes. The medium of Group 2 was supplemented with HA4 (10 ng/ml).
After the incubation, the medium was removed by centrifugation at 1000 rpm. The obtained cells were stored in a deep freezer at −60° C. From the cells thus stored, RNA was extracted according to a standard method. The extracted RNA was subjected to the DNA chip to analyze the gene expression. The DNA chip gene expression analysis was subtracted to DNA CHIP Research Inc. Specifically, the trade name: AceGene Human Oligo Chip 30K 1 Chip Version manufactured by DNA CHIP Research Inc. was employed.

[4] = tested on: cerebrospinal tissue of multiple sclerosis model (EAE); experiment: DNA array analysis of cerebrospinal tissue of the EAE model; type: in vivo, Lewis rats; conditions: EAE rats
[5] = tested on: U937 cell (human monocyte line); experiment: IL-6 production by LPS-stimulated U937 cells, ELISA; type: cell-based; conditions: U937, LPS 100 ng/ml, HA4 100 ng/ml, 24 hours
Protocol: (§1) An U937 cell was disseminated in a 2 ml aliquot in a 6-well microplate at 5×10^5 cell/ml, supplemented with an LPS at a final concentration of 100 or 1000 ng/ml, and then incubated for 24 hours with 5% CO2 at 37° C. in the presence or absence of HA4 (100 ng/ml). The culture supernatant was centrifuged at 3000 rpm for 5 minutes to obtain a test substance. A 1 ml aliquot of the recovered supernatant was subjected to Human Cytokine Antibody array (Raybio) using an ELISA (ENDOGEN) to detect the production of various cytokines.
(§2) More specifically, the following procedure was employed to measure the production of the cytokines by the cytokine array and the ELISA.
To a microplate, 50 μl of a biotinylated antibody solution and 50 μl of the culture supernatant were added, and allowed to stand at room temperature for 2 hours. After washing with a washing buffer three times, 100 μl of a streptoavidin-HRP solution was added, allowed to stand at room temperature for 30 minutes, and washed with the washing buffer three times. A TMB was added, allowed to stand for at room temperature 30 minutes, and then a quencher was added to stop the reaction and the absorbance at 450 nm was measured (reference: 562 nm). The IL-6 concentration (pg/ml) was calculated based on the standard solutions measured in parallel.

[6] = tested on: K562 (human erythroleukemia cell); experiment: Cell viability by Rhodamine 123 staining after heat treatment; type: cell-based; conditions: K562, 20 minutes at 43° C. then 60 minutes at 37° C., HA4 100 ng/ml
Protocol: In this example, effect of the inventive pharmaceutical agent on cell viability was measured using Rhodamine 123. […] Accordingly, the degree of the staining with Rhodamine 123 serves as an index of the mitochondrial activity, thus the index of the cellular activity (see, non-patent reference 2).
In this example, a K562 (referred to as human erythroleukemia cell or human erythroblastoid leukemia cell) was used. The K562 was purchased from RIKEN, Japan.
In this example relating to preparation of test substance, HA4 was prepared at 100 ng/ml. Specifically, HA4 was prepared by the method of Tawada et al. (Tawada A, Masa T, Oonuki Y, Watanabe A, Matsuzaki Y, Asari A. Large-scale preparation, purification and characterization of hyaluronan oligosaccharides from 4-mers to 52-mers. Glycobiology, 2002; 12(7): 421-6) and the concentration was adjusted using a physiological saline.
First, the K562 was incubated under the condition described below. The culture medium for the K562 was an RPMI-1640 medium. In this example, the K562 was incubated in Groups 1 to 3 shown below. Each group was cultured under the condition described below. […]
The K562 after washing was inoculated at 1×10^4 cells/ml in a 96-well plate and a photograph was taken using a fluorescent microscope (Nikon). The image was sent to an Adobe Photoshop (Adobe Systems) where the fluorescent intensity of a cell was measured.

[7] = tested on: U937 cell (human monocyte line); experiment: Cytokine production by LPS-stimulated U937 cells, Human Cytokine Antibody array; type: cell-based; conditions: U937, LPS 100 ng/ml, HA4 100 ng/ml, 24 hours
Protocol: as §1, §2
A 2 ml aliquot of a blocking buffer was added to a membrane blotted with an antibody, which was then shaken for 30 minutes. The blocking buffer was removed, and a 1 ml aliquot of the culture supernatant was added and shaken at room temperature for 2 hours, washed 5 times, and then admixed with a primary antibody solution. After agitating at room temperature for 1.5 hours followed by washing 5 times, a secondary antibody solution was added and agitated overnight at 4° C. After washing 5 times, a chemiluminescence was allowed to develop and photographed by a Polaroid. The photograph was scanned to obtain its digital data which were subjected to an Image J to measure the luminescent intensity. The ratio based on the luminescent intensity of an internal standard placed in 6 positions in the membrane was calculated. In addition, a relative level (%) based on the expression level in a non-treatment group (NT) being 100 was calculated.

[8] = intraspinal single administration after onset of disease, 60 μg
[9] = intrathecal continuous 6 μg/day from antigen inoculation, Day 14, pooled cerebrospinal tissue

CC(=O)N[C@H]1[C@H](O[C@H]2[C@H](O)[C@@H](O)[C@H](O[C@H]3[C@H](O)[C@@H](CO)OC(O)[C@@H]3NC(C)=O)O[C@@H]2C(=O)O)O[C@H](CO)[C@@H](O)[C@@H]1O[C@@H]1O[C@H](C(=O)O)[C@@H](O)[C@H](O)[C@H]1O (some centres unmarked) [HA4, tetrasaccharide hyaluronan]
HAA+/− ratio, Caspase 2 gene expression (K562 [1]; apoptosis-related): 0.27 | HAA+/− ratio, Granzyme H gene expression (K562 [1]; apoptosis-related): 0.38 | HAA+/− ratio, STK17b (DARK2) gene expression (K562 [1]; apoptosis-related): 0.09 | HAA+/− ratio, pawr (Par-4) gene expression (K562 [1]; apoptosis-related): 0.45 | HAA+/− ratio, dnaj (hsp40) homolog gene expression (K562 [1]; heat shock protein-related): 2.62 | HAA+/− ratio, DNAJ2 gene expression (K562 [1]; transcription control-related): 0.34 | HAA+/− ratio, TAF9L gene expression (K562 [1]; transcription control-related): 0.43 | Hsp72 immunostaining at primary and secondary injury sites (rat spinal injury model): a further intense staining | synaptophysin immunostaining at primary and secondary injury sites (rat spinal injury model): an expression close to that observed in Group 1 | EAE clinical score at the EAE climax ([2]; intraspinal continuous administration after onset of disease, 6 μg/day, 11 days (therapeutic)): 1.5±1.0 | EAE clinical score at the EAE climax ([2]; intraspinal continuous administration immediately after inoculation, 6 μg/day, 22 days (prophylactic), mean ± SD): 0.2±0.41 | EAE clinical score at the EAE climax [2, 8]: 1.8±0.5 | diseased period ([2]; intraspinal continuous administration after onset of disease, 6 μg/day, 11 days): 4.3 ± 1.5 days | cases developing the disease ([2]; intraspinal continuous administration immediately after inoculation, 6 μg/day, 22 days): ⅙ | diseased period [2, 8]: 5.0 ± 1.5 days | HA4(+)/HA4(−) ratio, CCL28 gene expression (K562 [3]): 0.32 | HA4(+)/HA4(−) ratio, IFN-γ gene expression (K562 [3]): 0.11 | HA4(+)/HA4(−) ratio, IFN-ω1 gene expression (K562 [3]): 0.5 | HA4(+)/HA4(−) ratio, IL-1β gene expression (K562 [3]): 0.36 | HA4(+)/HA4(−) ratio, IL-5 gene expression (K562 [3]): 0.28 | HA4(+)/HA4(−) ratio, IL-17b gene expression (K562 [3]): 0.31 | HA4(+)/HA4(−) ratio, IL-18RAP gene expression (K562 [3]): 0.32 | HA4(+)/HA4(−) ratio, Mig(CXCL9) gene expression (K562 [3]): 0.11 | IL-6 mRNA expression in cerebrospinal tissue ([4]; HA4 administered intrathecally after antigen inoculation, DNA array): increased | Expression level ratio (HA/physiological saline), Decoy TRAIL receptor without death domain [4, 9]: 2.0 | Expression level ratio (HA/physiological saline), Fibroblast growth factor receptor substrate 2 [4, 9]: 2.3 | Expression level ratio (HA/physiological saline), Transthyretin [4, 9]: 0.38 | production of IL-6 (ELISA) [5]: reduction | Rhodamine 123 staining performance (fluorescent intensity, mitochondrial activity) [6]: inhibited such a reduction | production of IL-1α (cytokine array) [7]: reduction | production of IL-1β (cytokine array) [7]: reduction | production of IL-6 (cytokine array) [7]: reduction | production of TGF-β (cytokine array) [7]: reduction | production of TNF-α (cytokine array) [7]: reduction | production of TNF-β (cytokine array) [7]: reduction
